{"source": "patent EP0288048A2", "about": "“Benzo- and thieno-3,4-dihydropyridine derivates, processes for their preparation, and medicaments containing them” (BOEHRINGER INGELHEIM KG, priority 1987, dated 1988)", "data": [{"system": "myocardiale Radiocalciumaufnahme", "assay": "Cardioprotective effect in conscious rats: inhibition of isoprenaline-induced myocardial radiocalcium uptake (method of Arndts)", "format": "in vivo, Ratten", "design": "unit not given here", "conditions": "oral administration (perorale Wirkstoffabgabe), dose inhibiting by 50 % the myocardial radiocalcium uptake caused by 30 mg/kg s.c. Isoprenalin", "from_the_text": "Insbesondere weisen diese Substanzen eine deutliche cardioprotektive Wirkung auf, die wie folgt bestimmt wurde: • Bekanntlich ist der myocardiale Ca(2+)-Gehalt ein Maß für die hypoxische bzw. durch toxische Catecholamindosen hervorgerufene Herzschädigung (Higgins et al., Mol. Cell. Cardiol. 10, 427-438, 1984; Nakanishi et al., Am. J. Physiol. 242, 437-449, 1982; Fleckenstein, A. Vorträge der Erlanger Physiol. Tagung 1970, Edit. Keidel, Springer Verlag Berlin, Heidelberg, New York, 1971). Umgekehrt ist die Inhibition der hypoxischen oder Isoprenalin-bedingten myocardialen Calciumaufnahme ein Maß für die cardioprotektive Effektivität von Calciumantagonisten (Fleckenstein, s.o.), von Calmodulininhibitoren (Higgins) und anderen Pharmaka, z.B. Betaadrenolytika (Arndts, Arzneimittelforschung 25, 1279-1284, 1975). Die cardioprotektive Wirkung wurde an wachen Ratten nach subcutaner oder peroraler Wirkstoffabgabe anhand der von Arndts (s.o.) beschriebenen Methode festgestellt und die Wirkungsstärke der Testsubstanzen als Hso-Wert angegeben. Dieser Wert entspricht der Dosis, die die durch eine Gabe von 30 mg/kg s.c. Isoprenalin bedingte myocardiale Radiocalciumaufnahme zu 50 % hemmt.", "values": [{"smiles": "COc1cc2c(cc1OC)C(CC(=O)NN(C)C)=NCC2", "note": "[B]", "H50-Wert": 2.26}, {"smiles": "CCCCC(C(=O)NCC(C)C)C1=NCCc2cc(OC)c(OC)cc21", "note": "(stereo not drawn) [C, α-Isobutylaminocarbonyl-1-pentyl-6,7-dimethoxy-3,4-dihydro-isochinolin]", "H50-Wert": 1.34}, {"smiles": "CCCCC(C(=O)NC(C)C)C1=NCCc2cc(OC)c(OC)cc21", "note": "(stereo not drawn) [D]", "H50-Wert": 2.25}, {"smiles": "CCCCC(C(=O)NCCc1ccccn1)C1=NCCc2cc(OC)c(OC)cc21", "note": "(stereo not drawn) [E]", "H50-Wert": 2.29}, {"smiles": "CCCCC(C(=O)NC)C1=NCCc2cc(OC)c(OC)cc21", "note": "(stereo not drawn) [F]", "H50-Wert": 1.41}, {"smiles": "CCCCC(C(=O)NCCOC)C1=NCCc2cc(OC)c(OC)cc21", "note": "(stereo not drawn) [G]", "H50-Wert": 2.23}, {"smiles": "COc1cc2c(cc1OC)C1(CCCC1)CNC2=CC1=NCC2(CCCC2)c2cc(OC)c(OC)cc21", "note": "[Verbindung A]", "H50-Wert": 1.25}, {"smiles": "CCCCC(C(=O)NCC(C)O)C1=NCCc2cc(OC)c(OC)cc21", "note": "(stereo not drawn) [Verbindung H]", "H50-Wert": 2.15}]}, {"system": "isolierten Rattenherzen", "assay": "Cardioprotective effect on isolated rat hearts under ischaemia followed by reperfusion (duration of arrhythmia phase)", "design": "species or system Ratten", "conditions": "konz. 3,3 µg/ml; isolated rat heart, one hour ischaemia (flow 0.15 ml/min), then reperfusion", "from_the_text": "(§1) Wird ein längere Zeit unter ischämischen Bedingungen gehaltenes, isoliertes Herz wieder normal perfundiert, so tritt keine sofortige Normalisierung der Herzfunktion ein. Es findet sich vielmehr eine vorübergehende Periode, die durch Kontraktur und Arrhytmien gekennzeichnet ist. Diese Arrhythmiephase ist durch Veränderungen von Funktion und Struktur der Myocardzelle mit intrazellulärer Calciumüberladung bedingt (Hess u. Manson, J. Mol. Cell. Cardiol. 16, 969, 1984). Cardioprotektiv wirksame Verbindungen wie Verapamil und Diltiazem verringern die Calciumüberladung und verbessern das Kontraktionsverhalten bei Reperfusion (Watts et al. Am. J. Physiol. 238, H 909, 1980; Meno et al. Am. J. Physiol. 247, H 380, 1984). Die cardioprotektive Wirkung wurde an isolierten Rattenherzen unter Ischämie und anschließender Reperfusion untersucht. Unter Kontrollbedingungen findet sich nach einstündiger Ischämie (Fluß 0.15 ml,min) eine Periode unregelmäßiger Herztätigkeit von 10-15 Minuten. Infusion von cardioprotektiven Verbindungen bewirkt eine signifikante Verkürzung dieser Periode.", "values": [{"smiles": "COc1cc2c(cc1OC)C(C(CCc1ccccc1)C(=O)NCCc1ccncc1)=NCC2", "note": "(stereo not drawn) [L]", "Verkürzung der Arrhythmie-phase von 11-13 min auf": "5,0 min"}, {"smiles": "COc1cc2c(cc1OC)C1(CCCC1)CNC2=CC1=NCC2(CCCC2)c2cc(OC)c(OC)cc21", "note": "[Verbindung A]", "Verkürzung der Arrhythmie-phase von 11-13 min auf": "4,0 min"}]}, {"system": "isolierten Rattenherzen", "assay": "Cardioprotective effect on isolated rat hearts under ischaemia followed by reperfusion (duration of arrhythmia phase)", "design": "species or system Ratten", "conditions": "konz. 6,6 µg/ml; isolated rat heart, one hour ischaemia (flow 0.15 ml/min), then reperfusion", "from_the_text": "as §1", "values": [{"smiles": "CCCCC(C(=O)NC(C)CCCC(C)C)C1=NCCc2cc(OC)c(OC)cc21", "note": "(stereo not drawn) [K]", "Verkürzung der Arrhythmie-phase von 11-13 min auf": "3,1 min"}]}, {"system": "isolierten Rattenherzen", "assay": "Cardioprotective effect on isolated rat hearts under ischaemia followed by reperfusion (duration of arrhythmia phase)", "design": "species or system Ratten", "conditions": "konz. 13,3 µg/ml; isolated rat heart, one hour ischaemia (flow 0.15 ml/min), then reperfusion", "from_the_text": "as §1", "values": [{"smiles": "COc1cc2c(cc1OC)C(CC(=O)N1CCOCC1)=NCC2", "note": "[Verbindung I]", "Verkürzung der Arrhythmie-phase von 11-13 min auf": "3,5 min"}]}]}
